Common to all, as to test: NCI tumour cell line growth inhibition, 48 h
The subject of assay [1] is ACHN.
Assay [2] relates to BT-549.
The subject of assay [3] is HCC 2998.
Assay [4] relates to HL-60.
Assay [5] concerns HOP-92.
In assay [6] the test system is HT-29.
The subject of assay [7] is IGROV-1.
The subject of assay [8] is KM12.
Assay [9] concerns M14.
The test system of assay [10] is MCF7.
Assay [11] relates to Malme-3M.
The subject of assay [12] is OVCAR-3.
Assay [13] deals with OVCAR-4.
Assay [14] has as its system PC-3.
The test system of assay [15] is RPMI-8226.
In assay [16] the test system is SK-MEL-5.
Assay [17] relates to T47D.
Assay [18] has as its system TK-10.
Assay [19] relates to UACC-257.
Assay [20] has as its system UO-31.

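Each compound was tested at five concentrations against cells in 96-well plates for 48 hours. GI50 is the concentration that inhibits growth by half.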 Active and inactive are the calls of the source. No stated cut-off is given here; in the data, active = GI50 up to about 1.1 µM and inactive = higher.

Consider `Cc1cc(OC2OC(CO)C(O)C(O)C2O)ccc1O` (stereo not given), for which the GI50 in assay [1], in assay [2], in assay [3], in assay [4], in [5] and in [6] was > 100 µM (inactive) each time. For the same molecule, the GI50 in [7], in [8], in assay [9], in assay [10], in assay [11] and in [12] was > 100 µM (inactive) each time. Besides, the GI50 in assay [13], in [14], in [15], in assay [16], in assay [17] and in assay [18] was > 100 µM (inactive) each time. In addition, the GI50 in assay [19] and in assay [20] was > 100 µM (inactive) throughout.

As to `O=C(/C=C/c1ccc(OCc2ccccc2)cc1)NCc1ccc(C(=O)NCCc2c[nH]c3ccccc23)cc1`, the GI50 was 36.5 µM (inactive) in [1]; 66.1 µM (inactive) in assay [2]; 43.2 µM (inactive) in [3]; 6.22 µM (inactive) in [4]; 21 µM (inactive) in assay [5]; 4.33 µM (inactive) in assay [6]. For the same molecule, the GI50 in assay [7] was 15.9 µM (inactive); in assay [8], 63.8 µM (inactive); in assay [9] it was 27.8 µM (inactive); in assay [10], 17.1 µM (inactive); in assay [11], 12.9 µM (inactive); in assay [12], 29 µM (inactive). Further, the GI50 in assay [13] is 7.76 µM (inactive); in [14], 12 µM (inactive); in [15], > 100 µM (inactive); in assay [16], 17.8 µM (inactive); in assay [17], 30.4 µM (inactive); in [18], 9.35 µM (inactive). The figures for the GI50 in assay [19] and in assay [20] were 33 µM (inactive) and 35 µM (inactive), respectively.

In the case of `COc1cc([C@H]2c3[nH]c4ccccc4c3C[C@H]3COC(=O)N32)cc(OC)c1O`, the GI50 is 0.163 µM (active) in [1]; 29.2 µM (inactive) in [2]; 0.143 µM (active) in assay [3]; 0.0176 µM (active) in [4]; 2.27 µM (inactive) in assay [5]; 0.0228 µM (active) in assay [6]. Further, the GI50 in [7] is 0.0502 µM (active); in assay [8], 0.0202 µM (active); in assay [9] it was < 0.0386 µM (active); in assay [10], < 0.01 µM (active); in assay [11] it was 3.95 µM (inactive); in assay [12], < 0.01 µM (active). Further, the GI50 in assay [13] is 39.3 µM (inactive); in [14], 0.0378 µM (active); in [15] it was 0.0404 µM (active); in assay [16], 0.0193 µM (active); in assay [17], 42.4 µM (inactive); in [18], 0.807 µM (active). The values for the GI50 in assay [19] and in assay [20] were > 100 µM (inactive) and 0.246 µM (active), respectively.

In the case of `COc1ccc(-c2cc3cc(Cl)cc(Cl)c3oc2=O)cc1OC`, the GI50 was 37.7 µM (inactive) in [1]; 57.3 µM (inactive) in assay [2]; 44.7 µM (inactive) in assay [3]; > 100 µM (inactive) in [4]; 46.6 µM (inactive) in assay [5]; 55.2 µM (inactive) in assay [6]. In addition, the GI50 in [7] was 51.8 µM (inactive); in [8], 31.6 µM (inactive); in [9], 60.3 µM (inactive); in assay [10] it was 59.3 µM (inactive); in assay [11] it was 59.8 µM (inactive); in assay [12], 29.4 µM (inactive). Moreover, the GI50 in assay [13] is 32.8 µM (inactive); in assay [14], 46.9 µM (inactive); in [15], 63.5 µM (inactive); in assay [16], 28.8 µM (inactive); in assay [17], 46.8 µM (inactive); in assay [18] it was 44.9 µM (inactive). For the same molecule, the figures for the GI50 in [19] and in assay [20] were 51.1 µM (inactive) and 58.7 µM (inactive), respectively.

On to `CCN(CC)CC1CCCCN1CC(=O)N1c2ccccc2NC(=O)CC1C` (stereo not given), for which the GI50 in assay [1], in [2], in assay [3], in assay [4], in assay [5] and in [6] was > 100 µM (inactive) each time. In addition, the GI50 in assay [7], in assay [8], in assay [9], in [10], in assay [11] and in assay [12] was > 100 µM (inactive) throughout. Also, the GI50 in [13], in [14], in [15], in [16], in assay [17] and in [18] was > 100 µM (inactive) in each case. Besides, the GI50 in [19] and in assay [20] was > 100 µM (inactive) in each case.

On to `CC(=O)Nc1sc([N+](=O)[O-])cc1S(=O)(=O)c1ccc(Cl)cc1`, for which the GI50 was 2.36 µM (inactive) in [1]; 3.64 µM (inactive) in assay [2]; 2.04 µM (inactive) in assay [3]; 1.92 µM (inactive) in assay [4]; 2 µM (inactive) in assay [5]; 3.13 µM (inactive) in assay [6]. The GI50 in [7] was 4.69 µM (inactive); in assay [8], 2.99 µM (inactive); in assay [9] it was 2.02 µM (inactive); in [10], 2.86 µM (inactive); in [11] it was 2.48 µM (inactive); in assay [12], 2.32 µM (inactive). Also, the GI50 is 1.86 µM (inactive) in [13]; 2.02 µM (inactive) in assay [14]; 3.14 µM (inactive) in assay [15]; 1.12 µM (active) in assay [16]; 2.04 µM (inactive) in assay [17]; 5.28 µM (inactive) in [18]. The GI50 in [19] was 2.64 µM (inactive); in assay [20] it was 3.09 µM (inactive).

On to `CC12CC1C(c1cccc([N+](=O)[O-])c1)(c1cccc([N+](=O)[O-])c1)N=N2` (stereo not given), for which the GI50 in [1] was 15.8 µM (inactive); in assay [2], 18.5 µM (inactive); in [3], 34.5 µM (inactive); in [4], 13 µM (inactive); in assay [5], 14.1 µM (inactive); in [6], 28 µM (inactive). For the same molecule, the GI50 is 20.3 µM (inactive) in assay [7]; 19.6 µM (inactive) in [8]; 38.9 µM (inactive) in [9]; 35.6 µM (inactive) in [10]; 18.2 µM (inactive) in assay [11]; 27.4 µM (inactive) in assay [12]. The GI50 in assay [13] is 23.1 µM (inactive); in assay [14], 25 µM (inactive); in assay [15], 2.96 µM (inactive); in assay [16], 26.8 µM (inactive); in assay [17], 25.8 µM (inactive); in [18], 27.8 µM (inactive). The GI50 in assay [19] was 28.1 µM (inactive); in [20] it was 10.8 µM (inactive).

On to `CCCCc1ccc(NC(=N)N)cc1`, for which the GI50 in assay [1] was 36.7 µM (inactive); in assay [2], 24.8 µM (inactive); in assay [3], 16.3 µM (inactive); in [4] it was 34.1 µM (inactive); in [5], 28.7 µM (inactive); in [6] it was 25.8 µM (inactive). Further, the GI50 is 21.7 µM (inactive) in assay [7]; 18.9 µM (inactive) in assay [8]; 24.2 µM (inactive) in assay [9]; 19.7 µM (inactive) in assay [10]; 38.8 µM (inactive) in assay [11]; 24.5 µM (inactive) in assay [12]. Further, the GI50 is 25.4 µM (inactive) in [13]; 23.8 µM (inactive) in [14]; 17 µM (inactive) in assay [15]; 12.9 µM (inactive) in assay [16]; 31.6 µM (inactive) in [17]; 22.1 µM (inactive) in [18]. Further, the values for the GI50 in [19] and in assay [20] were 33.7 µM (inactive) and 33.6 µM (inactive), respectively.

Turning to `O/N=N/c1ccc(-c2ccccc2)cn1`, the GI50 is 2.86 µM (inactive) in assay [1]; 30.7 µM (inactive) in [2]; 16.9 µM (inactive) in assay [3]; 0.176 µM (active) in assay [4]; 1.32 µM (inactive) in assay [5]; 20.6 µM (inactive) in assay [6]. Besides, the GI50 in assay [7] was 27.7 µM (inactive); in assay [8], 33.9 µM (inactive); in assay [9] it was 9.08 µM (inactive); in assay [10], 1.44 µM (inactive); in assay [11] it was 11.5 µM (inactive); in [12] it was 20.2 µM (inactive). Besides, the GI50 was 23.3 µM (inactive) in assay [13]; 7.4 µM (inactive) in assay [14]; < 0.01 µM (active) in assay [15]; 11.9 µM (inactive) in assay [16]; 8.18 µM (inactive) in assay [17]; 22.3 µM (inactive) in assay [18]. Besides, the GI50 in [19] is 43.9 µM (inactive); in assay [20], 13.2 µM (inactive).

On to `O=C(O)C(Cc1ccccc1)N1C(=O)c2ccccc2C1=O` (stereo not given), for which the GI50 in [1] is > 100 µM (inactive); in assay [2], > 100 µM (inactive); in assay [3], > 100 µM (inactive); in assay [4] it was 0.0472 µM (active); in assay [5] it was 29.2 µM (inactive); in assay [6], > 100 µM (inactive). The GI50 in assay [7], in assay [8], in assay [9], in assay [10], in [11] and in [12] was > 100 µM (inactive) throughout. In addition, the GI50 in assay [13], in [14], in assay [15], in assay [16], in assay [17] and in assay [18] was > 100 µM (inactive) each time. Also, the GI50 in assay [19] and in [20] was > 100 µM (inactive) each time.

Values taken from ChEMBL document CHEMBL1201862, “PubChem BioAssay data set” (2004).
